Format in all cases: in vivo, human
Series [1] is described as follows: Analgesic use in Group 1 and Group 2 subjects. The following applies: subjects of both groups.
Series [2] can be described thus: Pharmacokinetic study of abiraterone in hormone refractory prostate cancer patients, oral doses 250-2000 mg/day, fasted. As for the experimental part:
A group of 15 subjects was divided into five groups. Members of each group were orally administered doses of 250 mg/day, 500 mg/day, 750 mg/day, 1000 mg/day or 2000 mg/day once a day. Before administration the subjects had fasted. PK blood samples were measured at 1, 2, 4, 6, 8, 24, and 72 hours post dose.
(§1) To measure the amount of abiraterone and abiraterone acetate in the samples, these compounds were extracted from 100 uL human plasma using solid phase extraction (SPE) with cation mixed-mode polymer cartridges. Extracts were evaporated to dryness before reconstitution and analysis. Chromatography was carried out using a Luna™ C5 column (5 μm, 50 mm×2.1 mm id) with a gradient mobile phase consisting of 10 mM ammonium acetate and 2% propan-2-ol in acetonitrile. The flow rate was 0.2 mL/min and the run time 10.5 minutes. Abiraterone and abiraterone acetate were ionized using the electrospray interface in positive ion mode. Detection of analytes was via tandem mass spectrometry (MS/MS) in the multiple reaction monitoring (MRM) mode.
PK modeling was conducted using a non-compartmental model, extra vascular input for plasma with WinNonLin Software®. Pharmacokinetic parameters estimated in the model include: […]

In series [3] the test system is androgenic steroids, such as testosterone. Nature of the series: Blood plasma levels of androgenic steroids. The following applies: some subjects. As to the method: (§2) FIGS. 15A-15H show the blood plasma level of certain steroids over time in subjects that were administered 250 mg/day, 500 mg/day and 750 mg/day of abiraterone acetate.
Series [4] has as its system alkaline phosphatase (ALP). Nature of the series: Blood plasma levels of alkaline phosphatase. The following applies: some subjects. As to the method:
as §2

Series [5] relates to circulating tumor cells (CTC). Put plainly: Number of circulating tumor cells after administration. The following applies: certain patients after administration.
In a further series the test system is tumor lesions. Put plainly: Effect on tumor mass size, CT scans (RECIST), bone disease, nodes and metastases. As to the method:
(§3) The effect of abiraterone acetate on the blood levels of prostate-specific antigen (PSA) was evaluated. Two groups of subjects were involved in the study. The first group (“Group 1”) was comprised of the 18 subjects discussed above as well as 12 additional subjects that were administered 1000 mg/day of abiraterone acetate. All 30 of the subjects in Group 1 were castrated and hormone refractory; however, none of the 30 had been treated with chemotherapy, i.e., they were chemotherapy-naïve. The second group (“Group 2”) was comprised of 13 subjects, all of whom were castrated and hormone refractory. Also, these 13 subjects had been administered docetaxel and were chemotherapy refractory. The subjects in Group 2 were administered 1000 mg/day of abiraterone acetate. The subjects in both groups were administered abiraterone acetate until they progressed.
The effect of the administration of abiraterone acetate on tumor mass size was observed.

The nature of series [6]: Food effect PK study, two single oral 1000 mg doses of abiraterone acetate, fed (high fat) vs fasted. As to the method: as §1
PK modeling was conducted using a non-compartmental model, extra vascular input for plasma with WinNonLin Software®. Pharmacokinetic parameters estimated in the model include:
Based on the above results, the PK parameters for a single dose of 1000 mg/day of abiraterone acetate were further studied in the 3 subjects who were administered the 1000 mg/day dose and in 3 additional subjects. Two single oral doses (1000 mg) of abiraterone acetate were administered separately, one concomitantly with food of high fat content and one in fasting state. The first single dose was administered on day −9 with PK blood samples being taken at 1, 2, 4, 6, 8, 24, 48 and 72 hours post dose. The second single dose was administered on day −3 with PK blood samples being taken at 1, 2, 4, 6, 8, 24 and 48 hours post dose for analysis.

Series [7] has as its system prostate-specific antigen (PSA). Nature of the series: Effect of abiraterone acetate on blood levels of prostate-specific antigen (PSA). As to the method: as §3
60% of the Group 1 subjects (18 of 30) experienced a decline of PSA levels of greater than 50% for more than 10 days. A third of these subjects experienced PSA declines of greater than 90% for more than 10 days. FIGS. 9A-9D show the effect of the administration of abiraterone acetate on PSA levels for certain of the Group 1 subjects that were administered 250 mg/day, 500 mg/day, 750 mg/day and 1000 mg/day of abiraterone acetate. With respect to the Group 2 subjects, 7 of the 13 subjects experienced a decline in PSA levels of about 50% for more than 10 days.

Series [8] can be described thus: Safety, dose limiting toxicity in phase I/II study. The following applies: all subjects tested, Group 1 (250-2000 mg/day) and Group 2 (1000 mg/day). As to the method: An open label phase I/II study was carried out to evaluate the safety, efficacy and recommended dose of abiraterone acetate in prostate cancer patients. Pharmacokinetics (PK), pharmacodynamics and antitumor efficacy were also studied.
as §3

Consider `CC(=O)O[C@H]1CC[C@@]2(C)C(=CCC3C2CC[C@]2(C)C(c4cccnc4)=CCC32)C1` (stereo partly shown) [abiraterone acetate, 3-acetoxy-17-(3-pyridyl)androsta-5,16-diene], for which, in series [1], the analgesic use result is reported as “decrease in analgesic use was observed”. In addition, the “drug levels at 1000 mg compared with 500 mg” value in series [2] (1000 mg vs 500 mg Abiraterone acetate) is on record as “higher”. Besides, in [2] (1000 mg vs 750 mg in a fasting state), the “drug levels measured at 1000 mg compared with 750 mg fasting” value is “not higher”. Further, the “blood plasma levels of androgenic steroids, such as testosterone” value in [3] is reported as “declines”. Besides, the “blood plasma levels of alkaline phosphatase (ALP)” value in series [4] is given as “declines”. The “number of circulating tumor cells (CTC)” value in series [5] is “declines”. For the same compound, the “partial radiological responses as measured by CT scans (RECIST)” value with tumor lesions (20 evaluable Group 1 subjects with measurable tumor lesions) came to 11 subjects. The “subjects with ongoing stable bone disease” value in the series with tumor lesions (Group 1) was “Seven”. In addition, the “subjects with regressing bone disease” value with tumor lesions (Group 1) is on record as “three”. In addition, the pelvic nodes entry in the series with tumor lesions (subject administered 250 mg/day (FIG. 10)), in the series on tumor lesions (subject administered 750 mg/day (FIG. 11)) and with tumor lesions (subject administered 1000 mg/day (FIG. 12)) was “regression of pelvic nodes” each time. Besides, the mediastinal nodes entry with tumor lesions (subject administered 500 mg/day (FIG. 13)) is on record as “regression of mediastinal nodes”. Besides, the pulmonary metastases entry in the series with tumor lesions (subject administered 750 mg/day (FIG. 14)) is on record as “regression of pulmonary metastases”. Further, in series [6] (extended cohort, fasted group), the “AUC at 2000 mg relative to 1000 mg (doubling)” value is “no longer”. Besides, in [6] (extended cohort, fed group), the “AUC at 2000 mg relative to 1000 mg” value was “approximate doubling of AUC”. In series [6] (following an oral dose of abiraterone acetate at 1000 mg), the “abiraterone acetate detected in vivo” value is “no abiraterone acetate was detected”. For the same compound, the “mean drug exposure (AUC) at 2000 mg relative to 1000 mg” value in [6] (previously, in both dosing regimes (fed and fasted)) is recorded as “approximately double”. Moreover, in series [7] (Group 1: 30 castrated, hormone refractory, chemotherapy-naïve subjects (18 of 30)), the “subjects with decline of PSA levels of greater than 50% for more than 10 days” value turned out to be 60%. Further, in series [7] (Group 1, fraction of these subjects), the “subjects with PSA declines of greater than 90% for more than 10 days” value is recorded as “A third”. Besides, in series [7] (Group 2: 13 castrated, hormone refractory, docetaxel-treated chemotherapy refractory subjects, 1000 mg/day), the “subjects with decline in PSA levels of about 50% for more than 10 days” value is 7 of the 13. For the same compound, in series [8], the “dose limiting toxicity (DLTs)” value was “No dose limiting toxicity (DLTs) were observed”.

The values are drawn from patent publication US20090124587A1, “METHODS FOR TREATING CANCER USING 17alpha-HYDROXYLASE/C17,20-LYASE INHIBITORS” (priority 2007, published 2009).
